In patent publication US9549905B2, “Treatment of inflammatory and infectious skin disorders” (The Regents of the University of California, priority 2011, dated 2017):
Values joined by “and” are separate entries in the source; they are usually repeats but may differ in a detail not shown here. Equal values may be shown once.

What was measured:
P. acnes [1] = assay: Transmission electron microscopy of P. acnes; type: cell-based, Propionibacterium acnes; details: 1 mg/mL, 24 hours
Text: FIG. 4A. Electron Microscopy of P. acnes control without stimulus. […] Samples were visualized at 80 kV on a JEOL 100CX electron microscope. Bacteria were magnified according to the scale indicated below the main image, with higher magnification images located in the lower left inset.
This implies cellular lysis and death of the majority of bacterium, leaving only remaining unaffected bacteria to replicate and grow.
Resveratrol induced structural changes in the cell membrane of P. acnes. […] This implies cellular lysis and death of the majority of bacterium, leaving only remaining unaffected bacteria to replicate and grow.

[2] = system: IL-12 secretion by primary human monocytes; assay: Cytokine IL-12 assay in monocytes stimulated with P. acnes sonicate; type: cell-based; details: compared with 1% DMSO / untreated
Text: FIG. 3A. Cytokine IL-12 Assay.
The anti-inflammatory properties of resveratrol, benzoyl peroxide and the combination of resveratrol and benzoyl peroxide are exemplified by the cytokine IL-12 assay. […] To address this, we next investigated the cytotoxic effects of the various treatment groups.
To address this, we next investigated the cytotoxic effects of the various treatment groups.

[3] = system: Propionibacterium acnes ATCC strain 6919; assay: Colony Forming Unit (CFU) assay of P. acnes over 10 days; type: cell-based; details: for bactericidal activity in comparison at equal concentration: 75 μg/mL, FIG. 2D; for antimicrobial activity over time (words): CFU assay, irrespective of concentration
Description: FIG. 2A. […] Bacterial growth was assessed in terms of the growth factor of P. acnes (Y-axis), determined by the change in the number of bacteria compared to baseline control (set at 1 on Day 0). Concentrations were obtained over a 10-day period and plotted logarithmically. FIG. 2B. Colony Forming Unit (CFU) assays of P. acnes incubated with Benzoyl Peroxide (BPO). FIG. 2C. […] FIG. 2D. […] Having described the invention in general terms, the following specific example is offered for purpose of illustration and for illustration only, and no intention to limit the invention is to be inferred there from. […] Resveratrol and benzoyl peroxide were obtained from Sigma-Aldrich St. Louis, Mo. […] Propionibacterium acnes ATCC […] strain 6919 was grown anaerobically at 37° C. in Reinforced Clostridial Media (Oxoid) for 3 days and collected in the exponential phase of growth by centrifugation. Bacteria were washed with pH 7 sodium phosphate buffer supplemented by 0.03% Trypticase Soy Media and quantified by reading with a spectrophotometer at 600 nm and applying a conversion of ˜1×10^8 bacteria=1 absorbance unit. […] Samples were incubated anaerobically at 37° C. for intervals of 1, 2, 3, 7, and 10 days and then plated on brucella agar with 5% sheep blood supplemented with hemin and vitamin K (Remel). […] The results were plotted logarithmically as multiples of the initial concentration, which was designated as 1 at Day 0.

primary human monocytes = assay: MTS cytotoxicity assay; type: cell-based; details: for monocytes killed: 10 μg/mL
Description: FIG. 3B. Cytotoxicity Assay. […] The percentage of cells still viable after 16 hour incubation (compared to 1% DMSO control) were assessed (Y-axis) by measuring absorbance of the sample, which is proportional to the number of viable cells.
The cytotoxicity of resveratrol, benzoyl peroxide, and the combination of resveratrol and benzoyl peroxide was also assessed. (see FIG. 3B) We analyzed the cell viability of human monocytes using the MTS cytotoxicity assay. […] The direct cell cytotoxicity of benzoyl peroxide may explain the decrease in IL-12 activity, more a result of direct cell death, than actual anti-inflammatory properties of benzoyl peroxide.
We analyzed the cell viability of human monocytes using the MTS cytotoxicity assay.

P. acnes [4] = assay: P. acnes growth inhibition, 48 hour incubation and plating at different dilutions; type: cell-based, Propionibacterium acnes
Description: Serial dilutions of P. acnes plated without treatment provided qualitative comparisons to experimental groups treated with RES. Significant growth inhibition of P. acnes was first noted at 50 μg/mL and was dose dependent. […] (FIG. 2A).

Row | Structure (SMILES) | structural changes of P. acnes (P. acnes [1]) | concentration from which IL-12 secretion was diminished [2] [µg/mL] | fold more bactericidal than RES ([3]; 50 μg/mL, at 24 hours) [×] | bactericidal activity in comparison at equal concentration ([3]; 10-day period) | antimicrobial activity over time (words) [3] | antimicrobial activity over time (words) ([3]; listed as benzoyl peroxide) | lowest dose with bactericidal activity ([3]; data not shown) [µg/mL] | monocytes killed (primary human monocytes; 16 hour incubation, relative to 1% DMSO control) | lowest concentration toxic to monocytes (primary human monocytes; human, 16 h) [µg/mL] | concentrations with sustained and dose dependent bactericidal effect ([3]; 10-day period, FIG. 2A) | monocytes killed (primary human monocytes; human, 16 h) | growth equivalent to dilution of untreated P. acnes plates (P. acnes [4]; 50 μg/mL, 48 hours) [× dilution] | concentration at which significant growth inhibition of P. acnes was first noted (P. acnes [4]; 48 hours incubation, about 1.33×10^6 bacteria) [µg/mL]
1 | O=C(OOC(=O)c1ccccc1)c1ccccc1 [BPO, Benzoyl Peroxide] | structurally identical to control | ≥ 2.5 | ~1000 | short but immediate bactericidal activity | minimal effect on bacterial growth after 24 hours | virtually no activity remaining after 48 hours | 25 | greater than 90% | 5 |  |  |  | 
2 | Oc1ccc(C=Cc2cc(O)cc(O)c2)cc1 [RES, 3,5,4′-trihydroxystilbene] | loss of membrane definition due to intramembranous edema and loss of well defined extracellular fimbrial structures | ≥ 10 |  | slow but sustained bactericidal activity | slow but sustained antimicrobial response |  |  |  |  | 75 µg/mL and 100 µg/mL | approximately 35% | ~1000 | 50
